From ChEMBL document CHEMBL1132200, “Novel adrenoceptor antagonists with a tricyclic pyrrolodipyridazine skeleton” (J Med Chem, 1999) come the findings set out here.

By Ki is commonly meant the dissociation constant of the complex between target and ligand, obtained from inhibition or displacement. Low values mean a stronger hold on the target, high ones a looser hold on the target.

Experiment [1] concerns the target T1, Alpha-1B adrenergic receptor (Homo sapiens, UniProt P35368).
T1 sequence (P35368 whole entry): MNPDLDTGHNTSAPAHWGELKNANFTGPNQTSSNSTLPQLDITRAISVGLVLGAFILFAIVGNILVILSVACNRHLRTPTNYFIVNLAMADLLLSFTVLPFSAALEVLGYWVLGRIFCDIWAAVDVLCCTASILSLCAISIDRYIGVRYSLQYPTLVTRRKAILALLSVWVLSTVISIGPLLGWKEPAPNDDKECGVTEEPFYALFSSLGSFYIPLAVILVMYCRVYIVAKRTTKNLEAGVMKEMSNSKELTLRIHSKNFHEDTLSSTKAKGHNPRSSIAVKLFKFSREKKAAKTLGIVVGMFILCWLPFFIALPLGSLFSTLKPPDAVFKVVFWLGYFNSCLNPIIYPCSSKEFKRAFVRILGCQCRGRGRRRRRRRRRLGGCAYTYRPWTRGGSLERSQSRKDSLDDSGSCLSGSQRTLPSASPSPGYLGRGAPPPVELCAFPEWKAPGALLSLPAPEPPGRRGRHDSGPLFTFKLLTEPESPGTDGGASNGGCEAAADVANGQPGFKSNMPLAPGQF
Description: The compound was tested for binding affinity on [3H]- prazosin as specific ligand on Human cloned alpha-1B adrenergic receptor in CHO cells. The format is cell-based.

Experiment [2] can be described thus: Ratio of the binding affinities against 5-HT1A and alpha-1-adrenoceptor from rat brain membranes. The experiment is classed as cell membranes. Particulars: Membrane.
The target in experiment [3] is T2, Alpha-1A adrenergic receptor (Homo sapiens, UniProt P35348).
T2 sequence (P35348 whole entry): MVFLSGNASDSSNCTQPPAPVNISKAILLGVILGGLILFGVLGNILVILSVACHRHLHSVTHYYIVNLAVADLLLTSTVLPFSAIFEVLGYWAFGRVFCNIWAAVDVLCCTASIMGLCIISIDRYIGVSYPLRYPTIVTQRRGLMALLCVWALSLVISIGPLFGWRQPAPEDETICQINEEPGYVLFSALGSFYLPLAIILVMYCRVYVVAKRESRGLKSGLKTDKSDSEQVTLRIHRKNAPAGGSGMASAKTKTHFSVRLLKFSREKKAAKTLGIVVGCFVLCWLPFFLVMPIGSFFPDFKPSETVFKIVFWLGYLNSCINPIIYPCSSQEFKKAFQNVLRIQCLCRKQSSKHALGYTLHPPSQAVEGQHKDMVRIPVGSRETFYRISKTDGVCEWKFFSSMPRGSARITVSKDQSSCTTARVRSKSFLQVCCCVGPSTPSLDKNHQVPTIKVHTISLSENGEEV
Description: The compound was tested for binding affinity on [3H]- prazosin as specific ligand on Human cloned alpha-1A adrenergic receptor expressed in CHO cells. The format is cell-based.

Experiment [4] deals with T3, 5-hydroxytryptamine receptor 1A (Rattus norvegicus, UniProt P19327).
T3 sequence (P19327 whole entry): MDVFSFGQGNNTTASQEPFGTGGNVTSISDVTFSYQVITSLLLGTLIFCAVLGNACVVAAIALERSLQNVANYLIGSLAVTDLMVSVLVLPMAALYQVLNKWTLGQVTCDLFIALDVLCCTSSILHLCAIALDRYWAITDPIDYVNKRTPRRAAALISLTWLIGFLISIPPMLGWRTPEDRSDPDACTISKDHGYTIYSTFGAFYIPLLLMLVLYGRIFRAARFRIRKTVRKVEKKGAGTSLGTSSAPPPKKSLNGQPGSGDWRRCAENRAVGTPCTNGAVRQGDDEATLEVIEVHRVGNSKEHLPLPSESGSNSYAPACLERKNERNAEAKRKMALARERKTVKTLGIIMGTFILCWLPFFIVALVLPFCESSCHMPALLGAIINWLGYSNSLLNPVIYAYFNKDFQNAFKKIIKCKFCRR
Description: The compound was tested for binding affinity on [3H]8-OH-DPAT as specific ligand on 5-hydroxytryptamine 1A receptor in rat hippocampus. The format is tissue-based.

The target of experiment [5] is T4, Alpha-1D adrenergic receptor (Homo sapiens, UniProt P25100).
T4 sequence (P25100 whole entry): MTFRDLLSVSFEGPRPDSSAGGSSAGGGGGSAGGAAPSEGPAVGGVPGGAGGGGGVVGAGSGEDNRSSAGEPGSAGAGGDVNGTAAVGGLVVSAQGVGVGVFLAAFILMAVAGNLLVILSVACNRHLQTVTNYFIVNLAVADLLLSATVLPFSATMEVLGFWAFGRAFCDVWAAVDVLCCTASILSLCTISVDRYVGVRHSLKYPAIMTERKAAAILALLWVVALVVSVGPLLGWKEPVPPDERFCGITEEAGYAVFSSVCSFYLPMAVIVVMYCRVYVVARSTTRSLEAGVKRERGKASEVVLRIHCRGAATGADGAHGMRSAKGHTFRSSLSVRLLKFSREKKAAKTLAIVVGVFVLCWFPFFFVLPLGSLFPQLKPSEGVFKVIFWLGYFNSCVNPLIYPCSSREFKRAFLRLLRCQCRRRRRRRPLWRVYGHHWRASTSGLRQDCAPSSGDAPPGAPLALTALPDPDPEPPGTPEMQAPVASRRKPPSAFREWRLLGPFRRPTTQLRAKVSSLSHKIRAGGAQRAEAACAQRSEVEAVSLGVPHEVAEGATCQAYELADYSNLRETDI
Description: The compound was tested for binding affinity on [3H]- prazosin as specific ligand on Human cloned alpha-1D adrenergic receptor in CHO cells. The experiment is classed as cell-based.

For experiment [6], the target named is T5, Adrenergic receptor alpha-1 (Rattus norvegicus, UniProt P15823+P23944+P43140).
T5 sequence (P15823 whole entry): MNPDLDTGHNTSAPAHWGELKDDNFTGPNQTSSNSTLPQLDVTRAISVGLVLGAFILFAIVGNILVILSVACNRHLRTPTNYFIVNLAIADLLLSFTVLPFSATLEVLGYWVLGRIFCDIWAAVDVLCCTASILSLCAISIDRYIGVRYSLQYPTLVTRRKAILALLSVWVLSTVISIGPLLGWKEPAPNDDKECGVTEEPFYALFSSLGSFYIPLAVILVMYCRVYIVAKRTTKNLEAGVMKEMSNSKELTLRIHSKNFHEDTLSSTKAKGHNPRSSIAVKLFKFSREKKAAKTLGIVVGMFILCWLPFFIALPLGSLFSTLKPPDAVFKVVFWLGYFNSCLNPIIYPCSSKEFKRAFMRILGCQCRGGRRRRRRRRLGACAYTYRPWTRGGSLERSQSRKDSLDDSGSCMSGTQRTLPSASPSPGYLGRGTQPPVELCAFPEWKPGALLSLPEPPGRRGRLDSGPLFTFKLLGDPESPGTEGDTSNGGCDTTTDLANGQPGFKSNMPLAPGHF
T5 sequence (P23944 whole entry): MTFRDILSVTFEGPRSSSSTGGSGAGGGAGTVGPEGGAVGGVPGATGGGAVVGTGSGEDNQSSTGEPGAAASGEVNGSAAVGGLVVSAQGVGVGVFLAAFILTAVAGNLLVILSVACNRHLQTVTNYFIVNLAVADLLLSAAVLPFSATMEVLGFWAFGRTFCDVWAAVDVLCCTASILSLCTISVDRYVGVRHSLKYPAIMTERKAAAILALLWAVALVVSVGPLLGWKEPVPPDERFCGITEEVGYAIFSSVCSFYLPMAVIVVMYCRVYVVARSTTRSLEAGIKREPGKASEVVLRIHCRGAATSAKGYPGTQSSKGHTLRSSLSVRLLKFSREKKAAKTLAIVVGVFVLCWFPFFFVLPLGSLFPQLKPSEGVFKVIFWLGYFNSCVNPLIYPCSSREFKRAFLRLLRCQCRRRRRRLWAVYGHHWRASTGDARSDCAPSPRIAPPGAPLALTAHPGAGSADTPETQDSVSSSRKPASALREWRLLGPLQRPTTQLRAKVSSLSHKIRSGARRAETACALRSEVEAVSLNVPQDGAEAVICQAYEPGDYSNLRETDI
T5 sequence (P43140 whole entry): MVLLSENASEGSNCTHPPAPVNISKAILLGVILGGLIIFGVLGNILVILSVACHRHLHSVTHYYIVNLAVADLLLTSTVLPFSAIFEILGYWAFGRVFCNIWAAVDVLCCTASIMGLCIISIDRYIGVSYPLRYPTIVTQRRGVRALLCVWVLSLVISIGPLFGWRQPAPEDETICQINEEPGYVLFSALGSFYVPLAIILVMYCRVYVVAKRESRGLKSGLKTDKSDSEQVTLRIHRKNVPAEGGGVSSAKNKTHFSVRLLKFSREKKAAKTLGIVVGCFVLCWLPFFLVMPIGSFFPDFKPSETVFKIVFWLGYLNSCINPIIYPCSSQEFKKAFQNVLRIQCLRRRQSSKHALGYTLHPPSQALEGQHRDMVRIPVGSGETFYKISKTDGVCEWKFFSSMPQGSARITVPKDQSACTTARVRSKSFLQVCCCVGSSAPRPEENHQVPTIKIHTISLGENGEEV
Description: The compound was tested for binding affinity on [3H]- prazosin as specific ligand on alpha-1 adrenergic receptor cells in rat cerebral cortex. The experiment is classed as tissue-based.

Consider `Cn1nc(Cl)c2cn3nc(NCCN4CCN(c5ccccc5Cl)CC4)ccc3c2c1=O`, for which the Ki in experiment [1] came out at 13.6 nM; in experiment [3] it was 5.93 nM; in experiment [4], 56.5 nM; in experiment [5], 11.9 nM; in experiment [6], 54.6 nM. Moreover, the Ratio in experiment [2] is 1.03.
Turning to `Cn1nc(Cl)c2cn3nc(NCCN4CCN(c5ccccc5)CC4)ccc3c2c1=O`, the inhibition constant Ki stood at 15.6 nM in experiment [1]; 1.93 nM in experiment [3]; 21.2 nM in experiment [4]; 6.56 nM in experiment [5]; 129.2 nM in experiment [6]. Further, the Ratio in experiment [2] worked out at 0.16.
For `COc1ccccc1N1CCN(CCn2nc(-c3ccccc3)c(C(C)=O)c(N)c2=O)CC1`, the Ki in experiment [1] was 22.1 nM; in experiment [3], 4.75 nM; in experiment [4] it was 123 nM; in experiment [5], 0.93 nM; in experiment [6], 24.6 nM. Also, the Ratio in experiment [2] came out at 5.01.
As to `COc1ccccc1N1CCN(CCNc2ccc3c4c(=O)n(C)nc(Cl)c4cn3n2)CC1`, the Ki came to 15.2 nM in experiment [1]; 1.1 nM in experiment [3]; 16.3 nM in experiment [4]; 3.04 nM in experiment [5]; 73.3 nM in experiment [6]. Moreover, in experiment [2], the Ratio was found to be 0.22.
